In assay [1] the target is Recombinant human PARP1 protein (Homo sapiens, UniProt P09874). Description: biochemical.
Protocol: The PARP1/2 inhibitory activity of the compounds of the present invention was tested in an assay using Histone as a substrate.
Aim of the assay: to test the PARP1/2 enzymatic activity inhibition IC50 values of the compounds of the present application according to established experimental methods.
1. Compound Configuration: Dilute the compounds with DMSO in 384-well plates to a 1000-fold final concentration and set aside.
1) Dilute Histone with PBS, add 25uL of Histone mixture to each well and incubate for 2 h. 2) Wash each well 5 times using PBST solution. Remove the solution with a clean paper towel.3) Add 75 uL of Blocking buffer to each well and incubate for 1 h at rt. 4) Wash each well 5 times using PBST solution. Remove the solution with a clean paper towel.
2) Use 1× Assay buffer to prepare 2.5× final concentration of PARP1 solution. 3) Add 10 uL of enzyme solution to the compound wells and Max control wells; add 10 uL of 1× Assay buffer. […] 6) Centrifuge at 1000 rpm for 60 seconds and incubate at rt for 2 h. 7) Each well was washed 5 times with PBST solution. Remove the solution with a clean paper towel.
1) Prepare Streptavidin-HRP solution, add 25 µL to each well, centrifuge at 1000 rpm for 60 sec, and incubate at rt for 30 min. 2) Wash each well 5 times using PBST solution. Remove the solution with a clean paper towel. 3) Add 50 µL of ELISA Chemiluminescent Substrate per well. 4) Centrifuge at 1000 rpm for 60 seconds and read with EnSight after 5 min.
The inhibition rate was calculated using the following formula: % inhibition = (max signal - compound signal) / (max signal - min signal) × 100, where 'min signal' is the mean value of negative control wells and 'max signal' is the mean value of positive control wells.
Fitting the quantitative effect curve: using the log value of the concentration as the X-axis and the percentage inhibition as the Y-axis; using the log(inhibitor) vs. response-variable slope method in software GraphPadPrism5 to fit the quantitative effect curve to calculate the IC50 value for the inhibition of the enzyme activity by the compounds of the present invention. The fitting formula is: Y=Bottom+ (Top-Bottom)/(1+10^((logIC50-X)*HillSlope)).
In the next assay the test system is MDA-MB-436 cells. Description: MDA-MB-436 cell proliferation inhibition test (CellTiter-Glo, 7 days). The format is cell-based. To be noted: Homo sapiens, MDA-MB-436, 168 h, 7 days incubation. On the procedure:
Human breast cancer MDA-MB-436 (purchased from ATCC) cells were cultured in DMEM medium (supplemented with 10% fetal bovine serum with 1% dual antibody) at 37 °C, 5% CO2. The cells were taken from the logarithmic growth phase, digested and prepare cell suspension witha certain concentration, which was inoculated into 96-well plates. 100 µL of cell suspension was added to each well of the 96-well plates, incubated overnight, then different concentrations of compounds were added, and the cells were incubated in the cell culture incubator for 7 days. At the end of incubation, 50 µL of CellTiter-Glo reagent was added to each well, mixed with a microplate and shaked for 2 min, and left at rt for 60 min, then the fluorescence value was read with a Spark® multimode microplate reader. […] Table 2. proliferation inhibitory activity of compounds of the present invention on MDA-MB-436 cells
A general note: ATP-based viability assays read luminescence as a measure of living cells.

Sequence of Recombinant human PARP1 protein (P09874 whole entry): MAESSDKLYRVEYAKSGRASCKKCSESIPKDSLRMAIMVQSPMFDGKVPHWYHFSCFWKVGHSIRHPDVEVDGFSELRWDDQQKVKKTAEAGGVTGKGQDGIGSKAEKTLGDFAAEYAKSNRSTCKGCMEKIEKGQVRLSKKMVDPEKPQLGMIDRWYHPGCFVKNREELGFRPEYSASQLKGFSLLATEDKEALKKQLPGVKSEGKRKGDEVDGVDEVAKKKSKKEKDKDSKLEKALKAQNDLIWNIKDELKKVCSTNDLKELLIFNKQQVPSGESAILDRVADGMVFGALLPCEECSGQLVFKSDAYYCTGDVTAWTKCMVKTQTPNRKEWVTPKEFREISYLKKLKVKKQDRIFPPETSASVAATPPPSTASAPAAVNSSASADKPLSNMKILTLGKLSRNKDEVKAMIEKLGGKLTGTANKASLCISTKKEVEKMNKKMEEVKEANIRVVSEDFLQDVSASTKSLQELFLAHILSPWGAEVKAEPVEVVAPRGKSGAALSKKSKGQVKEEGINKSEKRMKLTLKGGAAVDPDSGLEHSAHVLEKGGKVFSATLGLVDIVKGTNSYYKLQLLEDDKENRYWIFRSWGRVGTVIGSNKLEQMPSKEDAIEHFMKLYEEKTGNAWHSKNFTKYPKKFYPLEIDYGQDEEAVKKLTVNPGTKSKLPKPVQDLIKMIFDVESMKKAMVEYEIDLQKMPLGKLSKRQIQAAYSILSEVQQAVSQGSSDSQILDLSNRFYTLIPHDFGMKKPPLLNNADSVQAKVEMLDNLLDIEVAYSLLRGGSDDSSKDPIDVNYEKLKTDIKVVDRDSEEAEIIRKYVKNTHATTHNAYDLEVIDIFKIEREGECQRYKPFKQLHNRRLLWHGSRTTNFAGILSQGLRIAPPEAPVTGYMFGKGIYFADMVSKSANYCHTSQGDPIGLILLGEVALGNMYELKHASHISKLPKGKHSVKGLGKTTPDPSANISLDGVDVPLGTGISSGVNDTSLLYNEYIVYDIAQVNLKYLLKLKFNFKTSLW

The term IC50 denotes the concentration at which inhibition is half-maximal. As to `CNC(=O)c1ccc(N2CCN(Cc3ccc4c(c3F)NC(=O)N3CC[C@@H](C)N=C43)CC2)c(F)n1` [Compound 143], the IC50 in assay [1] is 4.6 nM. Take `CCNC(=O)c1ccc(N2CCN(Cc3ccc4c(c3F)NC(=O)N3CCCN=C43)CC2)c(Cl)n1` [Compound 183]: the IC50 was found to be 9.2 nM with MDA-MB-436 cells and 0.36 nM in assay [1]. `CNC(=O)c1ccc(N2CCN(Cc3ccc4c(c3C)NC(=O)N3CCN=C43)CC2)c(F)n1` [Compound 127]: in assay [1], the IC50 was 7.3 nM. The same measure, in the same setting: to `CNC(=O)c1ccc(C2CCN(Cc3ccc4c(c3F)NC(=O)N3C[C@@H](C)N=C43)CC2)c(Cl)n1` [Compound 194] belongs 2.2 nM. On the same count and under the same terms, to `CNC(=O)c1ccc(N2CCN(Cc3cc4c(cc3Cl)C3=NCCN3C(=O)N4)CC2)c(F)n1` [Compound 135] belongs 9.6 nM; to `CNC(=O)c1ccc(N2CCN(Cc3ccc4c(c3)NC(=O)N3CCCN=C43)CC2)c(C)n1` [Compound 192], 1 nM; to `C[C@@H]1CN2C(=O)Nc3c(ccc(CN4CCN(c5ccc(C(=O)NCC(F)F)nc5Cl)CC4)c3F)C2=N1` [Compound 198], 0.5 nM. On the same count and under the same terms, for `CNC(=O)c1ccc(N2CCN(Cc3ccc4c(c3F)NC(=O)N3C[C@@H](C)N=C43)[C@H](C)C2)c(Cl)n1` [Compound 197] the value was 0.3 nM. For `CNC(=O)c1ccc(N2CCN(Cc3ccc4c(c3F)NC(=O)N3CCCN=C43)CC2)c(C)n1` [Compound 140], the concentration for half-maximal inhibition (IC50) with MDA-MB-436 cells is 12.8 nM; in assay [1], 1.5 nM. Consider `CNC(=O)c1ccc(N2CCN(Cc3ccc4c(c3F)NC(=O)N3C[C@H](F)CN=C43)CC2)c(Cl)n1` [Compound 146], for which the IC50 in the assay on MDA-MB-436 cells is 12.4 nM. Turning to `CNC(=O)c1ccc(N2CCN(Cc3ccc4c(c3)[nH]c(=O)n3cc(C)nc43)CC2)c(F)n1` [Compound 117], the IC50 in assay [1] is 0.5 nM. On the same count and under the same terms, to `O=C(N[C@@H]1CCOC1)c1ccc(N2CCN(Cc3ccc4c([nH]c(=O)c5ccnn54)c3F)CC2)c(F)n1` [Compound 112] belongs 14.2 nM; to `CNC(=O)c1ccc(N2CCN(Cc3ccc4c(c3F)NC(=O)N3C[C@@H](C)N=C43)CC2)c(C(F)F)n1` [Compound 203], 1.4 nM; to `CNC(=O)c1ccc(N2CCN(Cc3ccc4c([nH]c(=O)c5cscc54)c3F)CC2)c(F)n1` [Compound 80], 0.85 nM. Turning to `CNC(=O)c1ccc(N2CCN(Cc3ccc4c(c3F)NC(=O)N3C[C@H](C)N=C43)CC2)c(F)n1` [Compound 133], the IC50 with MDA-MB-436 cells is 28.7 nM; in assay [1], 1.2 nM. Regarding `O=C1Nc2c(ccc(CN3CCN(c4ccc(F)cc4F)CC3)c2F)C2=NCCCN12` [Compound 195], in assay [1], the IC50 stood at 40.8 nM.

Consider `CCNC(=O)c1ccc(N2CCN(Cc3ccc4c(c3F)NC(=O)N3CC(F)(F)CN=C43)CC2)c(F)n1` [Compound 186], for which the IC50 in the assay on MDA-MB-436 cells came to 6.4 nM; in assay [1], 0.58 nM. For the molecule `CC(c1ccc2c([nH]c(=O)c3ccnn32)c1F)N1CCN(c2ccc(F)cc2F)CC1` (centres unmarked) [Compound 99], the IC50 in assay [1] came to 571 nM. As to `CNC(=O)c1ccc(N2CCN(Cc3ccc4c(c3F)NC(=O)N3CCN=C43)CC2)c(Cl)n1` [Compound 126], the figures for the IC50 (with MDA-MB-436 cells; in assay [1]) were 5.4 nM and 1.3 nM, respectively. On the same counts, the results for `CNC(=O)c1ccc(N2CCN(Cc3ccc4c(c3F)NC(=O)N3C[C@H](F)CN=C43)CC2)c(C)n1` [Compound 145] are 8.9 nM and 0.6 nM. Regarding `CC(c1ccc2c([nH]c(=O)c3ccnn32)c1F)N1CCN(c2ccc(C#N)cn2)CC1` (centres unmarked) [Compound 98], in assay [1], the IC50 worked out at 18.4 nM. For the molecule `CNC(=O)c1ccc(N2CCN(Cc3ccc4c(c3)[nH]c(=O)c3cn(C)nc34)CC2)c(F)n1` [Compound 101], the half-maximal inhibitory concentration (IC50) in the assay with MDA-MB-436 cells is 9.3 nM; in assay [1] it was 1.7 nM.

As to `C[C@@H]1CN2C(=O)Nc3c(ccc(CN4CCN(c5ccc(C#N)cn5)CC4)c3F)C2=N1` [Compound 187], the IC50 in assay [1] is 0.95 nM. On the same count and under the same terms, for `Cc1nc(C(=O)NC2CC2)ccc1N1CCN(Cc2ccc3c(c2F)NC(=O)N2CCN=C32)CC1` [Compound 130] the value was 3.4 nM. For the molecule `CNC(=O)c1ccc(N2CCN(Cc3ccc4c(c3F)NC(=O)N3C[C@@H](C)N=C43)CC2)c(C)n1` [Compound 153], the IC50 with MDA-MB-436 cells stood at 8.1 nM; in assay [1] it was 1.3 nM. On the same counts, the results for `CNC(=O)c1ccc(N2CCN(Cc3ccc4c(c3F)NC(=O)N3C[C@H](C)N=C43)CC2)c(C)n1` [Compound 151] are 17.5 nM and 1.1 nM. The corresponding values for `CCNC(=O)c1ccc(N2CCN(Cc3ccc4c(c3F)NC(=O)N3C[C@@H](C)N=C43)CC2)c(F)n1` [Compound 172] are 5.7 nM and 0.7 nM. `CNC(=O)c1ccc(N2CCN(Cc3ccc4c(c3F)NC(=O)N3C[C@@H](C)N=C43)CC2)cn1` [Compound 193]: the IC50 in assay [1] was found to be 1.7 nM. Same read-out and setting: to `CNC(=O)c1ccc(N2CCN(Cc3ccc4c(c3)NC(=O)N3C[C@@H](C)N=C43)CC2)c(C)n1` [Compound 190] belongs 0.34 nM; to `CNC(=O)c1ccc(O[C@H]2CN(Cc3ccc4c(c3F)NC(=O)N3C[C@@H](C)N=C43)[C@@H]2C)cn1` [Compound 199], 0.6 nM.

With `CNC(=O)c1ccc(N2CCN(Cc3ccc4c(c3)[nH]c(=O)c3cnn(C)c34)CC2)c(F)n1` [Compound 16], the IC50 in assay [1] turned out to be 0.22 nM.

In the case of `CCNC(=O)c1ccc(N2CCN(Cc3ccc4c(c3F)NC(=O)N3CCN=C43)CC2)c(F)n1` [Compound 128], the half-maximal inhibitory concentration (IC50) in assay [1] worked out at 2.2 nM. Regarding `CNC(=O)c1ccc(N2CCN(Cc3ccc4c(c3F)NC(=O)N3CCN=C43)CC2)c(C)n1` [Compound 129], in the assay with MDA-MB-436 cells, the IC50 was < 1.52 nM.

`CNC(=O)c1ccc(N2CCN(Cc3ccc4c(c3F)NC(=O)N3CCCN=C43)CC2)c(C(F)F)n1` [Compound 204]: the IC50 in assay [1] worked out at 1.5 nM. Still for that read-out and setting: to `CNC(=O)c1ccc(N2CCN(Cc3ccc4c([nH]c(=O)c5cnnn54)c3F)CC2)c(F)n1` [Compound 26] belongs 17.7 nM; to `CNC(=O)c1ccc(N2CCN(Cc3ccc4c(c3)NC(=O)N3C[C@@H](C)N=C43)CC2)c(Cl)n1` [Compound 189], 0.67 nM. Same read-out and setting: to `O=C(NC1CC1)c1ccc(N2CCN(Cc3ccc4c(c3F)NC(=O)N3CCCN=C43)CC2)c(Cl)n1` [Compound 202] belongs 1.6 nM; to `CCNC(=O)c1ccc(N2CCN(Cc3ccc4c(c3F)NC(=O)N3CCCN=C43)CC2)c(F)n1` [Compound 171], 0.7 nM. As to `CNC(=O)c1ccc(N2CCN(Cc3ccc4c(c3F)NC(=O)N3CCN=C43)CC2)c(F)n1` [Compound 123], the IC50 in the assay on MDA-MB-436 cells worked out at 27.4 nM; in assay [1], 0.8 nM. With `CNC(=O)c1ccc(N2CCN(Cc3ccc4c([nH]c(=O)c5sccc54)c3F)CC2)c(F)n1` [Compound 77], the IC50 in assay [1] amounted to 0.6 nM. The same measure, in the same setting: to `CNC(=O)c1ccc(N2CCN(C(C)c3ccc4c([nH]c(=O)c5cn(C)nc54)c3F)CC2)c(F)n1` (centres unmarked) [Compound 19] belongs 273 nM. As for `CNC(=O)c1ccc(N2CCN(Cc3ccc4c(c3F)NC(=O)N3C[C@H](C)N=C43)CC2)c(Cl)n1` [Compound 152], the figures for the IC50 (with MDA-MB-436 cells; in assay [1]) were 21.5 nM and 1.5 nM, respectively. As for `CNC(=O)c1ccc(N2CCN(Cc3ccc4c(c3F)NC(=O)N3CC(F)(F)CN=C43)CC2)c(F)n1` [Compound 148], in the assay on MDA-MB-436 cells, the IC50 worked out at 3.6 nM. In the case of `CCNC(=O)c1ccc(N2CCN(Cc3ccc4c(c3F)NC(=O)N3CCCN=C43)CC2)c(C)n1` [Compound 184], in assay [1], the IC50 was found to be 1.13 nM.

For the origin of these results see patent publication EP4617273A1, “FUSED TRICYCLIC PARP1 INHIBITOR, PREPARATION METHOD THEREFOR, AND USE THEREOF” (Haihe Biopharma Co., Ltd., priority 2022, dated 2024).
